# Measured values reported in ChEMBL document CHEMBL1275453, “Resistance trends of the Bacteroides fragilis group over a 10-year period, 1997 to 2006, in Madrid, Spain” (2008).
# Assays:
# Format in all cases: functional
# Phocaeicola vulgatus [1] = assay: Antibacterial activity against Bacteroides vulgatus isolate by agar dilution method
# Bacteroides ovatus [2] = assay: Antibacterial activity against Bacteroides ovatus assessed as percent resistant isolates by agar dilution method
# Bacteroides fragilis [3] = assay: Antibacterial activity against Bacteroides fragilis isolate by agar dilution method
# [4] = test system: Parabacteroides distasonis; assay: Antibacterial activity against Bacteroides distasonis assessed as percent resistant isolates by agar dilution method
# Bacteroides uniformis [5] = assay: Antibacterial activity against Bacteroides uniformis assessed as percent resistant isolates by agar dilution method
# Bacteroides caccae [6] = assay: Antibacterial activity against Bacteroides caccae isolate by agar dilution method
# [7] = test system: Bacteroides thetaiotaomicron; assay: Antibacterial activity against Bacteroides thetaiotaomicron isolate by agar dilution method
# Bacteroides caccae [8] = assay: Antibacterial activity against Bacteroides caccae assessed as percent resistant isolates by agar dilution method
# Bacteroides uniformis [9] = assay: Antibacterial activity against Bacteroides uniformis isolate by agar dilution method
# [10] = test system: Bacteroides thetaiotaomicron; assay: Antibacterial activity against Bacteroides thetaiotaomicron assessed as percent resistant isolates by agar dilution method
# Bacteroides sp. = assay: Antibacterial activity against Bacteroides spp. isolate by agar dilution method
# Bacteroides ovatus [11] = assay: Antibacterial activity against Bacteroides ovatus isolate by agar dilution method
# Bacteroides stercoris [12] = assay: Antibacterial activity against Bacteroides stercoris assessed as percent resistant isolates by agar dilution method; conditions: pooled result: one value given for 4 cell lines, strains, targets or settings
# Bacteroides eggerthii = assay: Antibacterial activity against Bacteroides eggerthii isolate by agar dilution method
# Phocaeicola vulgatus [13] = assay: Antibacterial activity against Bacteroides vulgatus assessed as percent resistant isolates by agar dilution method
# [14] = test system: Parabacteroides distasonis; assay: Antibacterial activity against Bacteroides distasonis isolate by agar dilution method
# Parabacteroides merdae = assay: Antibacterial activity against Bacteroides merdae isolate by agar dilution method
# Bacteroides stercoris [15] = assay: Antibacterial activity against Bacteroides stercoris isolate by agar dilution method
# Bacteroides fragilis [16] = assay: Antibacterial activity against Bacteroides fragilis assessed as percent resistant isolates by agar dilution method
Compound,MIC50 (Phocaeicola vulgatus [1]),MIC90 (Phocaeicola vulgatus [1]),Activity (Bacteroides ovatus [2]),MIC50 (Bacteroides fragilis [3]),MIC90 (Bacteroides fragilis [3]),Activity [4],Activity (Bacteroides uniformis [5]),MIC50 (Bacteroides caccae [6]),MIC90 (Bacteroides caccae [6]),MIC50 [7],MIC90 [7],Activity (Bacteroides caccae [8]),MIC50 (Bacteroides uniformis [9]),MIC90 (Bacteroides uniformis [9]),Activity [10],MIC50 (Bacteroides sp.),MIC90 (Bacteroides sp.),MIC50 (Bacteroides ovatus [11]),MIC90 (Bacteroides ovatus [11]),Activity (Bacteroides stercoris [12]),other results
CO[C@@]1(NC(=O)Cc2cccs2)C(=O)N2C(C(=O)O)=C(COC(N)=O)CS[C@@H]21 [CEFOXITIN],16 µg/mL,64 µg/mL,12.2%,8 µg/mL,32 µg/mL,25.6%,9.4%,16 µg/mL,32 µg/mL,32 µg/mL,64 µg/mL,8.9%,16 µg/mL,32 µg/mL,23.6%,16 µg/mL,64 µg/mL,16 µg/mL,64 µg/mL,23.9%,MIC50 (Bacteroides eggerthii): 16 µg/mL; MIC90 (Bacteroides eggerthii): 64 µg/mL; Activity (Phocaeicola vulgatus [13]): 17%; MIC50 [14]: 32 µg/mL; MIC90 [14]: 64 µg/mL; MIC50 (Parabacteroides merdae): 16 µg/mL; MIC90 (Parabacteroides merdae): 64 µg/mL; MIC50 (Bacteroides stercoris [15]): 16 µg/mL; MIC90 (Bacteroides stercoris [15]): 64 µg/mL; Activity (Bacteroides fragilis [16]): 6.4%
O=C(N[C@H](CO)[C@H](O)c1ccc([N+](=O)[O-])cc1)C(Cl)Cl [CHLORAMPHENICOL],4 µg/mL,8 µg/mL,0%,4 µg/mL,8 µg/mL,0%,0%,4 µg/mL,8 µg/mL,4 µg/mL,8 µg/mL,0%,4 µg/mL,8 µg/mL,0%,4 µg/mL,8 µg/mL,4 µg/mL,8 µg/mL,0%,MIC50 (Bacteroides eggerthii): 4 µg/mL; MIC90 (Bacteroides eggerthii): 8 µg/mL; Activity (Phocaeicola vulgatus [13]): 0%; MIC50 [14]: 8 µg/mL; MIC90 [14]: 8 µg/mL; MIC50 (Parabacteroides merdae): 4 µg/mL; MIC90 (Parabacteroides merdae): 8 µg/mL; MIC50 (Bacteroides stercoris [15]): 4 µg/mL; MIC90 (Bacteroides stercoris [15]): 8 µg/mL; Activity (Bacteroides fragilis [16]): 0%
CCC[C@@H]1C[C@@H](C(=O)N[C@@H]([C@H]2O[C@H](SC)[C@H](O)[C@@H](O)[C@H]2O)[C@H](C)Cl)N(C)C1 [CLINDAMYCIN],4 µg/mL,> 256 µg/mL,48.8%,2 µg/mL,> 256 µg/mL,41.9%,40.6%,4 µg/mL,> 256 µg/mL,4 µg/mL,> 256 µg/mL,46.7%,2 µg/mL,> 256 µg/mL,47.3%,4 µg/mL,> 256 µg/mL,4 µg/mL,> 256 µg/mL,45.7%,MIC50 (Bacteroides eggerthii): 4 µg/mL; MIC90 (Bacteroides eggerthii): > 256 µg/mL; Activity (Phocaeicola vulgatus [13]): 44.7%; MIC50 [14]: 4 µg/mL; MIC90 [14]: > 256 µg/mL; MIC50 (Parabacteroides merdae): 4 µg/mL; MIC90 (Parabacteroides merdae): > 256 µg/mL; MIC50 (Bacteroides stercoris [15]): 4 µg/mL; MIC90 (Bacteroides stercoris [15]): > 256 µg/mL; Activity (Bacteroides fragilis [16]): 33.3%
